# Reference: patent US20040005352A1, “Biologically functionalized porous microspheres” (priority 2002, published 2004)
# T1: bacteriorhodopsin (BR) (Halobacterium salinarum, UniProt P02945)
# T1 sequence (P02945 14-262): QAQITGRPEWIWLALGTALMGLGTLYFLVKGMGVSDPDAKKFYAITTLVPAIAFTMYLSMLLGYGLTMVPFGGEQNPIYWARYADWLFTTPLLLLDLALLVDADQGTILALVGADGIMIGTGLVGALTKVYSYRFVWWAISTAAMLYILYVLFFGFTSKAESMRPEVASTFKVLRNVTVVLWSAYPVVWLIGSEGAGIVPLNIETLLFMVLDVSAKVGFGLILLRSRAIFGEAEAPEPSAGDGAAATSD
# B1: BR: integral membrane protein, light driven proton pump; purple membrane from Halobacterium salinarum (protein, UniProt P02945 14-262, looked up)
# Bacteriorhodopsin: T1 sequence (P02945 14-262)
# Experiments:
# [1] = test system: lipid bilayer of membrane-enclosed microspheres; type: biochemical; conditions: pH 7.4
# [2] = target: Human DAT protein (Homo sapiens, UniProt Q01959); conditions: anticipated; [3H]DA uptake, 3 min at 34° C.
# [3] = target: T1, bacteriorhodopsin (BR); test: FITC response to illumination of bacteriorhodopsin in the microsphere membrane (flow cytometry); conditions: for Activity of BR within the microsphere (proton pumping): BR in lipid bilayer on mesoporous microspheres, illumination
# From the text: The next investigation was to determine whether a integral membrane protein, bacteriorhodopsin (BR) retained its activity and effect a change on the contents of the microporous microsphere. The natural activity of bacteriorhodpsin is to increase the proton concentration (i.e. pH) upon illumination with the appropriate wavelength of light (ca 510 nm).
# The microspheres were then enveloped with liposomes containing 0.1-5% reconstituted bacteriorhodpsin-containing “purple membrane” from Halobacterium salinarum, in egg phosphatidyl choline.
# Sequence of Human DAT protein (Q01959 whole entry): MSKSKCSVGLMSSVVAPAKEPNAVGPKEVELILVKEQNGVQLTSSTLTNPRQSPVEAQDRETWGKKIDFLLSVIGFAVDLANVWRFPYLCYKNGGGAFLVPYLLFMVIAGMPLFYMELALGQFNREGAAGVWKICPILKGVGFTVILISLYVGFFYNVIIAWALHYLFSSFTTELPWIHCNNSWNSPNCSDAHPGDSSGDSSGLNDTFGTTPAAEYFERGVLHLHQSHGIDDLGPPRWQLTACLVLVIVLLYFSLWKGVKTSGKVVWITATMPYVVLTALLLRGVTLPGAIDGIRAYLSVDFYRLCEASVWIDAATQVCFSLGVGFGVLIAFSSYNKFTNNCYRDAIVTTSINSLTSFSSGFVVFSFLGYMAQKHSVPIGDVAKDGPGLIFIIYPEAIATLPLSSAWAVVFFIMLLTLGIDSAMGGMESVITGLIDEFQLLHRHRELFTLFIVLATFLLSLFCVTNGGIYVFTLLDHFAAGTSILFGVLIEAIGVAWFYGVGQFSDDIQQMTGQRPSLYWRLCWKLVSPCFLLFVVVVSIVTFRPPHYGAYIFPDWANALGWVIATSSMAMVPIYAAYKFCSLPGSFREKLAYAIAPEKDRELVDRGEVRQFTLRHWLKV
molecule,measurement,setting,value
α-hemolysin,Change in Mag-Fluo-4 fluorescence intensity (mean channel fluorescence),[1],increase in fluorescence intensity
NCCc1ccc(O)c(O)c1 [dopamine],Vmax,[2],9.0 pmol/10^5 cells/min
"O=[N+]([O-])[O-].O=[N+]([O-])[O-].O=[N+]([O-])[O-].[Gd+3] [Gd(NO3)3, reference compound]",Effect on BR,[3]; 3 μM Gd(NO3)3,inhibitor of BR
B1,FITC intensity after several minutes of illumination,"[3]; 0.1-5% BR purple membrane in egg phosphatidyl choline, white light",decreased
same,Activity of BR within the microsphere (proton pumping),[3],active
same,Activity of BR within the microsphere (proton pumping),[3]; listed as bacteriorhodopsin,photo-induced proton pumping
